Assay results taken from article PMC9687610, “Adenosine-Mimicking Derivatives of 3-Aminopyrazine-2-Carboxamide: Towards Inhibitors of Prolyl-tRNA Synthetase with Antimycobacterial Activity” (Biomolecules, 2022).
Converted amounts (≈) assume the structure as drawn. Like-named read-outs stand apart in the source and are kept apart here.

What was measured:
[1] = system: Klebsiella pneumoniae CCM 4415 (ATCC 10031); test: Antibacterial microdilution broth (EUCAST), KP; details: read after 24 h
[2] = system: Lichtheimia corymbifera CCM 8077; test: Antifungal microdilution broth (EUCAST), LC; format: cell-based; details: Lichtheimia corymbifera, CCM8077; read after 24 h; read-out: LC MIC
[3] = system: Mycobacterium tuberculosis H37Ra ITM-M006710 (ATCC 9431); test: Microplate Alamar Blue Assay (MABA), Mtb H37Ra; format: cell-based; details: Mycobacterium tuberculosis, 120 h
[4] = system: Acinetobacter baumannii DSM 30007 (ATCC 19606); test: Antibacterial microdilution broth (EUCAST), ACI; format: cell-based; details: Acinetobacter baumannii; read after 24 h; read-out: ACI MIC
[5] = system: Aspergillus flavus CCM 8363; test: Antifungal microdilution broth (EUCAST), AFla; format: cell-based; details: Aspergillus flavus, CCM8363; read after 24 h; read-out: AFla MIC
[6] = system: Enterococcus faecalis CCM 4224 (ATCC 29212); test: Antibacterial microdilution broth (EUCAST), EF; format: cell-based; details: Enterococcus faecalis; read after 24 h; read-out: EF MIC
[7] = system: Mycobacterium smegmatis DSM 43465 (ATCC 607); test: Microplate Alamar Blue Assay (MABA), M. smegmatis; format: cell-based; details: Mycolicibacterium smegmatis, read-out: M. smegmatis MIC
[8] = system: Trichophyton interdigitale CCM 8377 (ATCC 9533); test: Antifungal microdilution broth (EUCAST), TI; format: cell-based; details: Trichophyton interdigitale, 72 h, read-out: TI MIC
[9] = system: Pseudomonas aeruginosa CCM 3955 (ATCC 27853); test: Antibacterial microdilution broth (EUCAST), PA; format: cell-based; details: Pseudomonas aeruginosa; read after 24 h; read-out: PA MIC
[10] = system: Candida tropicalis CCM 8264 (ATCC 750); test: Antifungal microdilution broth (EUCAST), CT; format: cell-based; details: Candida tropicalis; read after 24 h; read-out: CT MIC
[11] = system: Escherichia coli CCM 3954 (ATCC 25922); test: Antibacterial microdilution broth (EUCAST), EC; format: cell-based; details: Escherichia coli; read after 24 h; read-out: EC MIC
[12] = system: Staphylococcus aureus subsp. aureus CCM 4223 (ATCC 29213); test: Antibacterial microdilution broth (EUCAST), SA; format: cell-based; details: Staphylococcus aureus; read after 24 h; read-out: SA MIC
[13] = system: Staphylococcus aureus subsp. aureus methicillin-resistant (MRSA) CCM 4750 (ATCC 43300); test: Antibacterial microdilution broth (EUCAST), MRSA; format: cell-based; details: Staphylococcus aureus; read after 24 h; read-out: MRSA MIC
[14] = system: Candida krusei CCM 8271 (ATCC 6258); test: Antifungal microdilution broth (EUCAST), CK; format: cell-based; details: Pichia kudriavzevii; read after 24 h; read-out: CK MIC
[15] = system: Candida parapsilosis CCM 8260 (ATCC 22019); test: Antifungal microdilution broth (EUCAST), CP; format: cell-based; details: Lodderomyces parapsilosis; read after 24 h; read-out: CP MIC
[16] = system: Candida albicans CCM 8320 (ATCC 24433); test: Antifungal microdilution broth (EUCAST), CA; format: cell-based; details: Candida albicans; read after 24 h; read-out: CA MIC
[17] = system: Staphylococcus epidermidis CCM 4418 (ATCC 12228); test: Antibacterial microdilution broth (EUCAST), SE; format: cell-based; details: read after 24 h, read-out: SE MIC
[18] = system: Aspergillus fumigatus ATCC 204305; test: Antifungal microdilution broth (EUCAST), AF; format: cell-based; details: Aspergillus fumigatus, ATCC204305; read after 24 h; read-out: AF MIC
[19] = system: M. aurum DSM 43999 (ATCC 23366); test: Microplate Alamar Blue Assay (MABA), M. aurum; format: cell-based; details: Mycolicibacterium aurum, read-out: M. aurum MIC
[20] = system: HepG2 human hepatocellular carcinoma cells; test: In vitro HepG2 cytotoxicity (CellTiter 96); details: for IC50: Homo sapiens, HepG2, 24 h, read-out: HepG2 IC50, 24 h incubation, * limit = highest evaluated concentration (precipitation in medium), ** over the 1000 µM limit
[21] = pH 6.6, MABA, Middlebrook 7H9 broth pH 6.6, resazurin after 120 h, read-out: Mtb H37Ra MIC

Structure (SMILES)	KP MIC [1] [µM]	MIC [2] [µM]	MIC [3, 21] [µg/mL]	MIC [4] [µM]	MIC [5] [µM]	MIC [6] [µM]	MIC ([7]; MABA, resazurin after 48 h) [µg/mL]	MIC [8] [µM]	MIC [9] [µM]	MIC [10] [µM]	MIC [11] [µM]	melting point [°C]	MIC [12] [µM]	MIC [13] [µM]	MIC [14] [µM]	MIC [15] [µM]	MIC [16] [µM]	MIC [17] [µM]	MIC [18] [µM]	MIC ([19]; MABA, resazurin after 72 h) [µg/mL]	other results
COC(=O)c1nccnc1NC(=O)c1ccc(C)cc1 [Compound 4e]	> 500	> 500	250 (≈ 922 µM)	> 500	> 500	> 500	62.5 (≈ 230 µM)	> 500	> 500	> 500	> 500	158.9 to 161.2	> 500	> 500	> 500	> 500	> 500	> 500	> 500	250 (≈ 922 µM)	–
COC(=O)c1nccnc1NC(=O)c1ccc(OC)cc1 [Compound 9e]	> 500	> 500	≥ 500	> 500	> 500	> 500	≥ 500	> 500	> 500	> 500	> 500	144.5 to 145	> 500	> 500	> 500	> 500	> 500	> 500	> 500	≥ 500	–
COC(=O)c1nccnc1NC(=O)c1ccccc1F [Compound 10e]	–	–	250 (≈ 908 µM)	–	–	–	≥ 500	–	–	–	–	123.2 to 125.4	–	–	–	–	–	–	–	≥ 500	–
COC(=O)c1nccnc1NC(=O)c1cccc(F)c1 [Compound 11e]	–	–	250 (≈ 908 µM)	–	–	–	≥ 500	–	–	–	–	135.5 to 136.3	–	–	–	–	–	–	–	≥ 500	–
COC(=O)c1nccnc1NC(=O)c1ccc(F)cc1 [Compound 12e]	–	–	≥ 500	–	–	–	≥ 500	–	–	–	–	151.1 to 153.6	–	–	–	–	–	–	–	≥ 500	–
COC(=O)c1nccnc1NC(=O)c1ccccc1Cl [Compound 13e]	–	–	≥ 500	–	–	–	250 (≈ 857 µM)	–	–	–	–	114.5 to 115.6	–	–	–	–	–	–	–	≥ 500	–
NC(=O)c1nccnc1NC(=O)c1cccc(Cl)c1 [Compound 14]	> 125	> 125	≥ 125	> 125	> 125	> 125	–	> 125	> 125	> 125	> 125	–	> 125	> 125	> 125	> 125	> 125	> 125	> 125	–	solubility in the testing medium (in words) ([20]; HepG2 cell culture medium): low solubility; IC50 [20]: > 25 µM; MIC ([7]; 48 h): ≥ 125 µg/mL; MIC ([19]; 72 h): ≥ 125 µg/mL
COC(=O)c1nccnc1NC(=O)c1cccc(Cl)c1 [Compound 14e]	> 500	> 500	250 (≈ 857 µM)	> 500	> 500	> 500	125 (≈ 429 µM)	> 500	> 500	> 500	> 500	146.3 to 147.1	> 500	> 500	> 500	> 500	> 500	> 500	> 500	250 (≈ 857 µM)	–
COC(=O)c1nccnc1NC(=O)c1ccccc1Br [Compound 16e]	> 500	> 500	125 (≈ 372 µM)	> 500	> 500	> 500	≥ 500	> 500	> 500	> 500	> 500	168.4 to 169.2	> 500	> 500	> 500	> 500	> 500	> 500	> 500	≥ 500	–
NC(=O)c1nccnc1NC(=O)c1ccccc1O [Compound 22]	–	–	–	–	–	–	≥ 500	–	–	–	–	> 300	–	–	–	–	–	–	–	≥ 500	MIC ([3]; pH 6.6, read-out: Mtb H37Ra MIC, MABA, Middlebrook 7H9 broth pH 6.6, resazurin after 120 h): ≥ 500 µg/mL; IC50 [20]: > 250 µM
NC(=O)c1nccnc1NC(=O)c1ccc(O)cc1 [Compound 23]	–	–	≥ 500	–	–	–	≥ 500	–	–	–	–	243.7 to 245.1	–	–	–	–	–	–	–	≥ 500	IC50 [20]: > 500 µM
NC(=O)c1nccnc1NC(=O)c1ccc(N)cc1 [Compound 24, 3-(4-aminobenzamido)pyrazine-2-carboxamide]	–	–	125 (≈ 486 µM)	–	–	–	≥ 250	–	–	–	–	> 300	–	–	–	–	–	–	–	≥ 250	IC50 [20]: 929 µM
NC(=O)c1nccnc1NC(=O)C12CC3CC(CC(C3)C1)C2 [Compound 28]	> 500	> 500	31.2 (≈ 104 µM)	> 500	> 500	> 500	125 (≈ 416 µM)	125 (≈ 37.5 µg/mL)	> 500	> 500	> 500	–	> 500	> 500	500 (≈ 150 µg/mL)	> 500	500 (≈ 150 µg/mL)	> 500	> 500	125 (≈ 416 µM)	IC50 [20]: 367 µM
